From ChEMBL document CHEMBL5226288, “A perspective on medicinal chemistry approaches towards adenomatous polyposis coli and Wnt signal based colorectal cancer inhibitors” (Eur J Med Chem, 2021)
≈ marks a conversion by molar mass, not a printed value. One block for each compound: values may come before it.

Tests used:
DLD-1 [1] = assay: Antiproliferative activity against human DLD-1 cells assessed as reduction in cell proliferation; type: functional, cell-based
SW480 [2] = assay: Antiproliferative activity against human SW480 cells assessed as reduction in cell proliferation; type: functional, cell-based
SW480 [3] = assay: Anticancer activity against human SW480 cells assessed as reduction in cell proliferation incubated for 72 hrs by; type: functional, cell-based
SW480 [4] = assay: Anticancer activity against human SW480 cells assessed as decrease in cell growth incubated for 72 hrs by tryphan blue staining based cell counter analysis; type: functional; settings: SW480, 72 h
HCT-116 [5] = assay: Anticancer activity against human HCT-116 cells assessed as decrease in cell growth incubated for 72 hrs by tryphan blue staining based cell counter analysis; type: functional; settings: HCT-116, 72 h
DLD-1 [6] = assay: Anticancer activity against human DLD-1 cells assessed as reduction in cell viability; type: functional, cell-based
HCT-116 [7] = assay: Anticancer activity against human HCT-116 cells assessed as reduction in cell viability incubated for 48 hrs by MTT assay; type: functional, cell-based; settings: HCT-116, 48 h
DLD-1 [8] = assay: Anticancer activity against human DLD-1 cells assessed as reduction in cell viability incubated for 48 hrs by MTT assay; type: functional, cell-based; settings: DLD-1, 48 h
SW480 [9] = assay: Antiproliferative activity against human SW480 cells assessed as reduction in cell proliferation incubated for 24 hrs by MTT assay; type: functional, cell-based; settings: SW480, 24 h
HCT-116 [10] = assay: Antiproliferative activity against human HCT-116 cells assessed as reduction in cell proliferation incubated for 24 hrs by MTT assay; type: functional, cell-based; settings: HCT-116, 24 h
HCT-116 [11] = assay: Antiproliferative activity against human HCT-116 cells assessed as reduction in cell viability; type: functional, cell-based
SW480 [12] = assay: Antiproliferative activity against human SW480 cells assessed as reduction in cell viability; type: functional, cell-based
HCT-116 [13] = assay: Anticancer activity against human HCT-116 cells assessed as reduction in cell viability incubated for 24 hrs by MTT assay; type: functional, cell-based; settings: HCT-116, 24 h
SW480 [14] = assay: Anticancer activity against human SW480 cells assessed as reduction in cell viability incubated for 24 hrs by MTT assay; type: functional, cell-based; settings: SW480, 24 h
SW480 [15] = assay: Anticancer activity against human SW480 cells assessed as reduction in cell viability; type: functional, cell-based
[16] = target: T1, Poly [ADP-ribose] polymerase tankyrase-2 (Homo sapiens, UniProt Q9H2K2); assay: Inhibition of TNKS2 (unknown origin)
T1 sequence (Q9H2K2 whole entry): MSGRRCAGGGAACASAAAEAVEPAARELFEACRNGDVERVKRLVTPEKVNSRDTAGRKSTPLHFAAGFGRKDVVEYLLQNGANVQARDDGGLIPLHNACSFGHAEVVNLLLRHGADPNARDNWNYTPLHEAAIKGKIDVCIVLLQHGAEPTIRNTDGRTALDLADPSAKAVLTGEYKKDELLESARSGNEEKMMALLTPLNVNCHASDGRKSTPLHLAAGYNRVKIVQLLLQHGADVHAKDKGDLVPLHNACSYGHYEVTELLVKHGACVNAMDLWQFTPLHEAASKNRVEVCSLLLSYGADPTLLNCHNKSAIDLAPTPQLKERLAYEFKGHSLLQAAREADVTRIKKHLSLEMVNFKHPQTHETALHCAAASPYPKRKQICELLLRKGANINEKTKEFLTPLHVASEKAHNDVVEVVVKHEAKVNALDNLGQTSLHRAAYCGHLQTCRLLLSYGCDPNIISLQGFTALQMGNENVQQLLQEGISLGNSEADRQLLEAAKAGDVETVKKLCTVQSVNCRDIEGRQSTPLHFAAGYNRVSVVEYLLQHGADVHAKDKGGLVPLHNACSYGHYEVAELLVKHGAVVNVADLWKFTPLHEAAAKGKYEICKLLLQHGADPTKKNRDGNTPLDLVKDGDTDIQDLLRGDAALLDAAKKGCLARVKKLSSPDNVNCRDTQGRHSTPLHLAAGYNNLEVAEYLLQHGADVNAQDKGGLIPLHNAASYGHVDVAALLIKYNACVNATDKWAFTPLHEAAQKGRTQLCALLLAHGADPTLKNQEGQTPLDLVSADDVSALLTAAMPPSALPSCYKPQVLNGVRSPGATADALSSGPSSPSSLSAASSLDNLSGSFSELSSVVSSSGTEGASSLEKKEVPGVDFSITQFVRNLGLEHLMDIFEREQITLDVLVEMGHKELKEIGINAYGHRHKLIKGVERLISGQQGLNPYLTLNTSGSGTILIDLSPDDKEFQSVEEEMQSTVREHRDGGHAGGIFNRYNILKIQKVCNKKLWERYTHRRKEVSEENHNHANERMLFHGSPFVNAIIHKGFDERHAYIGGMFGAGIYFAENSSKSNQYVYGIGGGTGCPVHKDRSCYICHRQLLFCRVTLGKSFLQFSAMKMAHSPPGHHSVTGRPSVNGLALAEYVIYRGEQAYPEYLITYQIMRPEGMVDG

[17] = target: T2, Poly [ADP-ribose] polymerase tankyrase-1 (Homo sapiens, UniProt O95271); assay: Inhibition of TNKS1 (unknown origin)
T2 sequence (O95271 whole entry): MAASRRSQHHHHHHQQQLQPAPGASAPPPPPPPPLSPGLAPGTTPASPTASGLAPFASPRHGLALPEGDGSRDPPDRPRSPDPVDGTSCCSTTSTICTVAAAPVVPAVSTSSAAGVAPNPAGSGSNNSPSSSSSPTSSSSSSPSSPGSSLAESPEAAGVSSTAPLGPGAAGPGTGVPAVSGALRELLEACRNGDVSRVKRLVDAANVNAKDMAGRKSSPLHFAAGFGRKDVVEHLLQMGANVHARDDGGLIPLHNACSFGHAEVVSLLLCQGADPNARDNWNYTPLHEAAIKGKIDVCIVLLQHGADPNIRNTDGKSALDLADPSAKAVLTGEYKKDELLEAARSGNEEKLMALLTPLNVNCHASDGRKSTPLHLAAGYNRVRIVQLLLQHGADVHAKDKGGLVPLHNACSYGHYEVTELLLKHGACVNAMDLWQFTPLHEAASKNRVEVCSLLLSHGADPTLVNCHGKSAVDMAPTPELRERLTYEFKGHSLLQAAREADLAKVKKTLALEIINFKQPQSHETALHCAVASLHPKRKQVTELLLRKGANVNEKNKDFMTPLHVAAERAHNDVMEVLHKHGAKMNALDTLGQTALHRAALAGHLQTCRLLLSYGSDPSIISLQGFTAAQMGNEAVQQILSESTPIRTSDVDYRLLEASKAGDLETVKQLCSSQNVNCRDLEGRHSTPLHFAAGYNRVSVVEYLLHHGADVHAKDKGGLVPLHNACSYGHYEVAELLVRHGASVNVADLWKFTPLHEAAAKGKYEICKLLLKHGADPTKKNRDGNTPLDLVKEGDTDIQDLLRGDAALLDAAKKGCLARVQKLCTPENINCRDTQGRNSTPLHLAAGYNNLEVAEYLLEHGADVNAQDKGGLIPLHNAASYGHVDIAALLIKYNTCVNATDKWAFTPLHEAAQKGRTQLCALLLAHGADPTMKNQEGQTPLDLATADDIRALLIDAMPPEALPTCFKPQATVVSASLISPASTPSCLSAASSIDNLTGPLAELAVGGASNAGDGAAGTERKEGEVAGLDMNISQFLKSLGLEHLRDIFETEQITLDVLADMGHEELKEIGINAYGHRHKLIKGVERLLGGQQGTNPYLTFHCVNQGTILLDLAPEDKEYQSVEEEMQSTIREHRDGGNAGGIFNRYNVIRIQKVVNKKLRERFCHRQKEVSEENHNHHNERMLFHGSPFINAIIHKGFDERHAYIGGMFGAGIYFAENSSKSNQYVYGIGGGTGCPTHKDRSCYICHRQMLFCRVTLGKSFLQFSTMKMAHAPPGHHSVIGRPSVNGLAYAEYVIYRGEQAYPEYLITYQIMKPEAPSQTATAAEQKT

Compound: CC(=O)O[C@@H]1C(=O)c2c(O)cc(O)cc2O[C@H]1c1ccccc1
IC50 (SW480 [3]): 45.6 µg/mL (≈ 145 µM)

Compound: COc1cc(C2Oc3cc([C@H]4Oc5cc(O)cc(O)c5C(=O)[C@@H]4O)ccc3OC2CO)ccc1O (stereo partly drawn) [SILIBININ]
IC50 (SW480 [4]): 50 µM
IC50 (HCT-116 [5]): 50 µM

Compound: NS(=O)(=O)c1ccc(NC(=S)N2CCN(C/C=C/c3ccccc3)CC2)cc1
IC50 (DLD-1 [6]): 0.018 µM

Compound: CCCCCCCCCCCCCC(C(=O)O)C(O)(CC(=O)OC)C(=O)O (stereo not drawn)
IC50 (HCT-116 [7]): 100 µM
IC50 (DLD-1 [8]): 100 µM

Compound: C=C1C(=O)[C@]23C[C@H]1CCC2[C@@]1(C)C([C@@H](O)[C@@H]3O)[C@](C)(C(=O)O)CC[C@@H]1O (stereo partly drawn)
IC50 (HCT-116 [5]): 4.07 µM

Compound: S=C=NCCc1ccccc1 [PHENETHYLISOTHIOCYANATE]
IC50 (DLD-1 [6]): 54.6 µM
IC50 (SW480 [15]): 35.6 µM

The remaining lines, values ahead:

IC50 (DLD-1 [1]): 3.4 µM
IC50 (SW480 [2]): 3.9 µM
Compound: O=C(O)c1ccc(-n2nc(-c3ccccc3O)nc2-c2ccccc2O)cc1 [DEFERASIROX]

IC50 (SW480 [9]): 20 µM
IC50 (HCT-116 [10]): 20 µM
Compound: CC1(C)C=Cc2c(ccc(C(=O)/C=C/c3ccccc3)c2O)O1 [LONCHOCARPIN]

IC50 (HCT-116 [11]): 75.5 µM
IC50 (SW480 [12]): 44.1 µM
Compound: CC(C)=CCc1c(O)ccc(C(=O)/C=C/c2ccc(O)cc2)c1O [ISOBAVACHALCONE]

IC50 (HCT-116 [13]): 3.7 µM
IC50 (SW480 [14]): 4.9 µM
Compound: CC1=C(CO)C(=O)O[C@@H]([C@@H](C)[C@H]2CC[C@H]3[C@@H]4C[C@H]5O[C@]56[C@@H](O)C=CC(=O)[C@]6(C)[C@H]4CC[C@]23C)C1 [WITHAFERIN A]

IC50 (HCT-116 [13]): 18.2 µM
IC50 (SW480 [14]): 16.1 µM
Compound: CC(C)(C)[Si](OC[C@@]1(C)C2CC[C@@]3(CO3)[C@@H](C/C=C3/C(=O)OC[C@H]3O)[C@]2(C)CC[C@H]1O)(c1ccccc1)c1ccccc1 (stereo partly drawn)

IC50 (DLD-1 [1]): 2.9 µM
IC50 (SW480 [2]): 3.8 µM
Compound: CC(=O)N(O)CCCCCNC(=O)CCC(=O)N(O)CCCCCNC(=O)CCC(=O)N(O)CCCCCN [DEFEROXAMINE]

IC50 [16]: 0.025 µM
IC50 [17]: 0.046 µM
Compound: Cc1ccccc1-n1c(/C=C/c2nnc(-c3ccc(C#N)cc3)o2)nnc1-c1ccc(S(C)(=O)=O)cn1
